Reference: US8557816B2, “Aurora kinase modulators and method of use” (Amgen Inc., priority 2007, dated 2013)
Read-outs that look alike come from different tables or passages of the source.

Tests used:
AuroraA-TPX2 = target: T1, AuroraA-TPX2 (Homo sapiens, UniProt O14965); assay: AuroraA-TPX2 Homogeneous Time Resolved Fluorescent (HTRF) kinase assay; format: biochemical
T1 construct: 20 μL of AuroraA-TPX2 KD GST for a final volume of about 41 μL; GST
T1 sequence (O14965 133-383 limits assumed): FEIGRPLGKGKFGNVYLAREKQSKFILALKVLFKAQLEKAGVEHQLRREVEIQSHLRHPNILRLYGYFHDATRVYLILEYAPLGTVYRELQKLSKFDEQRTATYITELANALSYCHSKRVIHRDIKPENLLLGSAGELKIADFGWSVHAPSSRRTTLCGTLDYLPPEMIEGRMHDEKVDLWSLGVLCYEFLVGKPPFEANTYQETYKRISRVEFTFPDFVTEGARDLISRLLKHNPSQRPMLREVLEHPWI
T1 sequence (Q9ULW0 1-43 partner limits assumed): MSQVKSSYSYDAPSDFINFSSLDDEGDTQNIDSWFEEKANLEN
Procedure, shortened: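 HTRF read-out (Eu 615 nm to APC 655 nm) of phosphorylated biotin-PLK, detected with 0.02 nM europium anti-phosphoPLK antibody and 0.0005 mg/mL SA-APC after overnight equilibration.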

AuroraB = target: T2, AuroraB (Homo sapiens, UniProt Q96GD4); assay: AuroraB Homogeneous Time Resolved Fluorescent (HTRF) kinase assay; format: biochemical
T2 construct: 20 μL of AuroraB FL H is for a final volume of 41 μL; His
T2 sequence (Q96GD4 whole entry): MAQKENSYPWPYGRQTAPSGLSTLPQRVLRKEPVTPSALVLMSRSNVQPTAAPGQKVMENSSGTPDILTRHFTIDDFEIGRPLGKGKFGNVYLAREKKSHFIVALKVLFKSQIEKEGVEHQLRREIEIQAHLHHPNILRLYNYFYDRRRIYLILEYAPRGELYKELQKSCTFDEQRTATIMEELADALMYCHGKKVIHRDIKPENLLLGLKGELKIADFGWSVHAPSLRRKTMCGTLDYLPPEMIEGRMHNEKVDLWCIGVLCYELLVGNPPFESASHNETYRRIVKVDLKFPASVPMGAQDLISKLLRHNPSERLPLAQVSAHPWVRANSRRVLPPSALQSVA
Procedure, shortened: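 Full-length His-tagged kinase phosphorylates biotinylated Histone H3 (0.1 μM final) with ATP in pH 7.5 HEPES containing MgCl, MnCl, DTT and BSA for about 90 min. EDTA-containing detection mix with SA-APC and Eu-anti-phosphoHistone H3 then equilibrated about 60 min; HTRF read with 320 nm excitation, emissions 615/655 nm.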

HeLa cells = assay: HeLa cell 24 hr ploidy assay (DNA content); format: cell-based
Experimental: HeLa Cell 24 hr Ploidy Assay Protocol
The purpose of this assay is to evaluate the ability of selected individual compounds to induce Deoxyribonucleic acid (DNA) content (ploidy) in cells through failed cell division. Cell cycle analysis is a rapid and efficient way to evaluate the status of DNA content (ploidy) of a given cell. HeLa cells (1×10^4 HeLa cells/well) in 100 ul of media (MEM+10% FBS) were plated in 96-well plates (Packard View) and cultured for 24 hrs at 37° C. maintained in a 5% CO2 atmosphere. […] The compounds were serially diluted in DMSO (0.25% final concentration). The cells were fixed (3.7% Formaldehyde and 1% glutaraldehyde) and permeabilized (1×PBS with 1% BSA and 0.2% Triton X-100) in preparation for nuclear staining. The well plates were stained for 45 minutes at RT in the dark using Hoechest 33342 nuclear stain at 0.5 ug.ml (Stock of 10 mg/ml, Invitrogen, CA, Cat # H3570). The nuclear stain was removed by aspiration and the cells were washed with wash buffer. A Cellomics Array Scan Vti plate reader was used to acquire the DNA ploidy data of the cells using Cell Cycle bioapplication. Numbers for each of “valid cell count/well”, “% of 4N cells” and “% of >4Ncells” were calculated with the assistance of an Activity Base 5.1ca software and dose curves were generated using an XLFit software. With XLFit, final EC50 IP and EC50 transit values, as well as the Max and Min, were calculated for each curve.

HCT116 xenografts = assay: HCT116 xenograft model (human colon carcinoma), tumor growth inhibition; format: in vivo; conditions: p.o., athymic nude mice
Experimental: Compounds of the present invention were evaluated in HCT116 xenografts, a human colon carcinoma model. […] These cells were grown as subcutaneous xenografts in female HSD (Harlan Sprague Dawley) athymic nude mice. Mice were implanted subcutaneously with 2×10^6 cells in matrigel on day 0. Treatment was initiated on day 10 with compounds of the invention at the indicated dosage p.o for 2 consecutive-days per week (intermittent schedule, such as 2 days on-5 days off) or 7-days (continuous schedule) per week, for a selected number of weeks. For example, in one study, animals were dosed with selected compound samples BID on an intermittent dosing paradigm of two days on and then 5 days off per week, for four weeks (four dosing cycles) at 15, 7.5, and 3.75 mg/kg. Tumor growth inhibition and body weights were measured throughout the study and compared to the vehicle control group. All groups were provided nutritional supplements on a daily basis throughout the study to maintain body weight. Terminal neutrophil counts were taken at the end of this study. Measures were made by ANOVA followed by Scheffe post hoc test using StatView software v5.0.1.
10 Flasks containing a total of 7.68×10^8 HCT116 tumor cells were harvested for tumor cell implantation. HCT 116 cells were re-suspended to a cell concentration of about 2×10^7 cells/ml in serum-free McCoys 5A media+50% matrigel. Cell viability was measured to be about 99.3%.
Female Athymic Nude mice approximately 14 weeks of age (Harlan Sprague Dawley) were used for the experiment. Mice were housed five per filter-capped cage in sterile housing in an environmentally controlled room (temperature 23±2° C., relative humidity 50±20%) on a 12-hr light/dark cycle. […] On Day 9, tumor-bearing mice were measured and randomized into five groups (n=10). […] During the dosing period, mouse tumor volumes were measured with a digital caliper and weighed twice per week. Tumor volumes were calculated as follows: Tumor Volume (mm^3) [(W^2×L)/2] where width (W) is defined as the smaller of the 2 measurements and length (L) is defined as the larger of the 2 measurements.

[1] = average, read-out: AurA_IC50_IP (uM Avg)
[2] = average, read-out: AurB_IC50_IP (uM Avg)
[3] = 4N DNA content, average, read-out: 24h_4N Ploidy EC50_IP (uM Avg)

| Compound | IC50 (AuroraA-TPX2; [1]) | IC50 (AuroraB; [2]) | also measured |
| --- | --- | --- | --- |
| 4-(4,5-dimethylthiophen-2-yl)-N-(4-(7-methoxy-1,5-naphthyridin-4-yloxy)phenyl)phthalazin-1-amine [Example 34] | 0.013 µM | 0.01 µM | EC50 (HeLa cells; [3]): 0.062 µM |
| 4-(4-chlorophenyl)-N-(3-fluoro-4-(4-quinolinyloxy)phenyl)-1-phthalazinamine [compound 244] | 0.048 µM | 0.003 µM | EC50 (HeLa cells; [3]): 0.04 µM |
| COc1cnc2c(Oc3ccc(Nc4nnc(-c5ccc(Cl)cc5)c5ccccc45)cc3)ccnc2c1 [Example 160, 4-(4-chlorophenyl)-N-(4-((7-(methyloxy)-1,5-naphthyridin-4-yl)oxy)phenyl)-1-phthalazinamine] | 0.007 µM | 0.003 µM | inhibition of tumor growth (HCT116 xenografts; 3.75 mg/kg, 2-day dosing scheduling QD): ~86% |
| COc1cnc2c(Oc3ccc(Nc4nnc(-c5ccc6c(c5)OCO6)c5ccccc45)cc3)ccnc2c1 [Example 165, 4-(1,3-benzodioxol-5-yl)-N-(4-((7-(methyloxy)-1,5-naphthyridin-4-yl)oxy)phenyl)-1-phthalazinamine] | 0.009 µM | 0.007 µM | inhibition of tumor growth (HCT116 xenografts; 2.5 mg/kg, 2-day dosing scheduling BID): ~63% |
| COc1cnc2c(Sc3ccc(Nc4nnc(N5CCN6CCCC[C@H]6C5)c5ccccc45)cc3)ccnc2c1 [compound 585] | 0.036 µM | 0.006 µM |  |
| COc1cnc2c(Oc3ccc(Nc4nnc(N5CC[C@H]6CCCC[C@@H]6C5)c5ccccc45)cc3)ccnc2c1 [compound 586] | 0.124 µM | 0.042 µM |  |
| COc1cnc2c(Oc3ccc(Nc4nnc(N5CC[C@@H]6CCCC[C@H]6C5)c5ccccc45)cc3)ccnc2c1 [compound 587] | 0.217 µM | 0.033 µM |  |
| COc1cnc2c(Sc3ccc(Nc4nnc(-c5ccc(C)nc5)c5ccccc45)cc3)ccnc2c1 [compound 588] | 0.051 µM | 0.017 µM |  |
| Cc1csc(-c2nnc(Nc3ccc(Sc4ccnc5ccc(=O)[nH]c45)cc3)c3ccccc23)c1 [compound 589] | 0.019 µM | 0.008 µM |  |
| COc1cc(OC)c2c(Oc3ccc(Nc4nnc(-c5ccc(Cl)cc5)c5ccccc45)cc3)ncnc2c1 [compound 590] | 0.027 µM | 0.02 µM |  |
| Clc1ccc(-c2nnc(Nc3ccc(Oc4ncnc5ccsc45)cc3)c3ccccc23)cc1 [compound 591] | 0.25 µM | 0.005 µM |  |
| N#Cc1ccc2nccc(Oc3ccc(Nc4nnc(-c5ccccc5)c5ccccc45)cc3)c2c1 [compound 592] | 0.338 µM | 0.022 µM |  |
| COCc1cc(-c2ccccc2)nnc1Nc1ccc(Oc2ccnc3cc(OC)cnc23)cc1 [compound 593] | 0.526 µM | 0.082 µM |  |
| CCc1cc(-c2ccc3c(c2)OCO3)nnc1Nc1ccc(Oc2ccnc3cc(OC)cnc23)cc1 [compound 594] | 0.094 µM | 0.051 µM |  |
| CCc1cc(-c2ccc(C)cc2)nnc1Nc1ccc(Nc2ccnc3cc(OC)cnc23)cc1 [compound 595] | 0.102 µM | 0.023 µM |  |
| CCc1cc(-c2ccc(C)cc2)nnc1Nc1ccc(Nc2ccnc3cc(C#N)ccc23)cc1 [compound 596] | 0.16 µM | 0.058 µM |  |
| COc1cc2nccc(Sc3ccc(Nc4nnc(-c5ccccc5)c5ccccc45)cc3)c2nc1OC [compound 597] | 0.246 µM | 0.681 µM |  |

| Compound | IC50 (AuroraA-TPX2; [1]) | IC50 (AuroraB; [2]) | also measured |
| --- | --- | --- | --- |
| COc1cc2nccc(Sc3ccc(Nc4nnc(-c5ccc(Cl)cc5)c5ccccc45)cc3)c2nc1OC [compound 598] | 0.135 µM | 0.595 µM |  |
| Brc1cnc2c(Oc3ccc(Nc4nnc(-c5ccccc5)c5ccccc45)cc3)ncnc2c1 [compound 599] | 0.794 µM | 0.256 µM |  |
| COc1cnc2c(Sc3ccc(Nc4nnc(N5CCN6C[C@H](F)C[C@H]6C5)c5ccccc45)cc3)ccnc2c1 [compound 600] | 0.014 µM | 0.01 µM |  |
| COc1cnc2c(Sc3ccc(Nc4nnc(N5CCN6CC(F)(F)C[C@H]6C5)c5ccccc45)cc3)ccnc2c1 [compound 601] | 0.021 µM | 0.012 µM |  |
| COc1cnc2c(Oc3ccc(Nc4nnc(N5CCN6CCCCC[C@@H]6C5)c5ccccc45)cc3)ccnc2c1 [compound 604] | 0.027 µM | 0.013 µM |  |
| COc1cnc2c(Sc3ccc(Nc4nnc(N5CCN(S(C)(=O)=O)CC5)c5ccccc45)cc3)ccnc2c1 [compound 605] | 0.803 µM | 0.083 µM |  |
| COc1cc(OC)c2c(Oc3ccc(Nc4nnc(-c5ccccc5)c5ccccc45)cn3)ncnc2c1 [compound 606] | > 25 µM | 0.035 µM |  |
| COc1cnc2c(Oc3ccc(Nc4nnc(N5CCN(S(C)(=O)=O)CC5)c5ccccc45)cc3)ccnc2c1 [compound 607] | 2.82 µM | 0.324 µM |  |
| COc1cnc2c(Sc3ccc(Nc4nnc(N5CCN(C(C)=O)CC5)c5ccccc45)cc3)ccnc2c1 [compound 608] | 0.352 µM | 0.022 µM |  |
| CCc1cc(-c2ccccc2OC)nnc1Nc1ccc(Sc2ccnc3cc(OC)cnc23)cc1 [compound 609] | 0.123 µM | 0.02 µM |  |
| Clc1ccc(-c2nnc(Nc3ccc(Oc4ccnc5cc(OCc6ccccc6)cnc45)cc3)c3ccccc23)cc1 [compound 610] | 0.047 µM | 0.033 µM |  |
| COc1ccc2c(C(C)c3ccc(Nc4nnc(-c5ccc(Cl)cc5)c5ccccc45)cc3)ccnc2c1 (stereo not drawn) [compound 613] | > 25 µM | 0.243 µM |  |
| COc1ccc2c(C(O)c3ccc(Nc4nnc(-c5ccc(Cl)cc5)c5ccccc45)cc3)ccnc2c1 (stereo not drawn) [compound 614] | 0.223 µM | 0.046 µM |  |
| COc1ccc2c(C(=O)c3ccc(Nc4nnc(-c5ccc(Cl)cc5)c5ccccc45)cc3)ccnc2c1 [compound 615] | 0.3 µM | 0.039 µM |  |
| (7-(4-(4-(4-methylthiophen-2-yl)phthalazin-1-ylamino)phenylthio)thieno[3,2-b]pyridin-2-yl)(morpholino)methanone [compound 296] |  |  | IC50 (AuroraA-TPX2; given as class symbol, read-out: AurA_IC50_IP (class symbol)): < 0.1 µM; IC50 (AuroraB; given as class symbol, read-out: AurB_IC50_IP (class symbol)): < 0.1 µM; EC50 (HeLa cells; given as class symbol, read-out: 24h_4N Ploidy EC50_IP (class symbol)): < 0.1 µM |
| N-(5-(7-methoxy-1,5-naphthyridin-4-yloxy)pyridin-2-yl)-4-phenylphthalazin-1-amine [Example 54] | 0.176 µM | 0.02 µM | EC50 (HeLa cells; [3]): 0.028 µM |
